Patent US10495796B2, “Near-infrared cut filter” (AGC INC., priority 2012, dated 2019)

Experiments:
[1] = Solubility of dye to organic solvent; type: physicochemical; settings: 50° C., mass % of the dye to the mass of the entire solution; for Solubility to organic solvent: MIBK: methyl isobutyl ketone
Procedure: Regarding the dyes (A11-1) to (A11-10) and (A11-20) to (A11-27) obtained above, solubility to organic solvent was evaluated as follows.
Three kinds of solvents, cyclohexanone, methyl isobutyl ketone (MIBK), toluene, were used as the organic solvent in the solubility test. Note that in Table 3, % is mass % of the dye to the mass of the entire solution. Further, the temperature of each organic solvent in the solubility test was 50° C.

[2] = Absorption characteristics: transmission spectrum of near-infrared absorbing layer of NIR filter (UV-visible spectrophotometer); type: physicochemical
Procedure: Further, the transmittance of the near-infrared absorbing layer can be measured by using an ultraviolet visible light spectrophotometer. For example, when the near-infrared absorbing layer is provided on a glass substrate, the transmittance is calculated by subtracting the transmittance of only the glass substrate. Note that the transmittance of light of the near-infrared absorbing layer refers to, unless otherwise stated, a ratio to light incident from a direction orthogonal to a main surface of a sample, the ratio of this light traveling straight inside the sample and transmitted to an opposite side. Further, when the transmittance is measured by making light incident from a direction other than the direction orthogonal to the main surface of the sample in the measurement of transmittance of light, an angle made by a straight line indicating the direction of the incident light to a line orthogonal to the main surface is called an incident angle.
In the condition (ii-3), the value calculated by nd(B)×(λa−λc) (hereinafter, this value may also be described as “Is value”) is a value to be an index indicating steepness of the absorption curve in the vicinity of the boundary between the visible light region and the near-infrared region with respect to a transmission spectrum of the near-infrared absorbing layer. When this value is 115 or less, the absorption curve in the vicinity of the boundary between the visible light region and the near-infrared region is steep with respect to the near-infrared absorbing layer, which can be said as preferable for the NIR filter.
That is, with respect to the transmission spectrum of the near-infrared absorbing layer, the smaller the difference (λa−λc) between the shortest wavelength λa with transmittance of 1% in the region of 650 nm to 800 nm and the wavelength λc with transmittance of 70% on a shorter wavelength side than the λa, the steeper the absorption curve in the vicinity of the boundary between the visible light region and the near-infrared region. Here, λa−λc also depends on a wavelength width having transmittance of 1% or less (λb−λa; λb is the longest wavelength with transmittance of 1% in the wavelength region of 650 nm to 800 nm). Accordingly, in order to compare and evaluate the steepness of the absorption curve in the above region of the transmission spectrum of the near-infrared absorbing layer, λb−λa is fixed to 30 nm. That is, λb−λa of the near-infrared absorbing layer which the present filter has is not limited to 30 nm.
Further, in the Is value, (λa−λc) is multiplied by the refractive index nd(B) of the transparent resin (B) contained in the near-infrared absorbing layer as a coefficient. This is to standardize the difference in steepness among resins.
Regarding transmittance (%/nm) of the NIR filters 1 to 109 obtained above, transmission spectra were measured and calculated by using an ultraviolet visible light spectrophotometer (U-4100 type spectrophotometer made by Hitachi High-Technologies Corporation). Analysis results of transmission spectra of the near-infrared absorbing layers which the NIR filters have are presented in Table 4, Table 5 and Table 6 for the NIR filters 1 to 25, 26 to 51, 52 to 75, respectively, and are presented in Table 7 and Table 8 for the NIR filters 76 to 94, 95 to 109, respectively. In Table 4 to Table 8, the ratios (parts by mass) of dyes to 100 parts by mass of the transparent resin (B) and film thicknesses of the near-infrared absorbing layers are described together.
Further, conditions of preferred transmission spectra of the near-infrared absorbing layers in the present filter and Is values obtained by the formula: nd(B)×(λa-λc) described in above (ii-3) are described in Table 4 to Table 8 together with λa in the condition (ii-1) and λb-λa in the condition (ii-2). Note that values described in Table 4 to Table 8 are values obtained by subtracting transmittance of a glass plate from transmittance of an NIR filter. […]

[3] = transparent resin polycarbonate SP1516, nd(B) 1.60, film thickness 0.9 μm
[4] = transparent resin acrylic resin BR50, nd(B) 1.56, film thickness 2.3 μm
[5] = transparent resin polycarbonate EP5000, nd(B) 1.63, film thickness 2.4 μm
[6] = transparent resin polycarbonate SP3810, nd(B) 1.63, film thickness 1.0 μm
[7] = transparent resin polycarbonate SP3810, nd(B) 1.63, film thickness 2.8 μm

For `CCCCCC(=O)Nc1cc2c(cc1C1=C([O-])C(=c3cc4c(cc3NC(=O)CCCCC)=[N+](C)C(C)C4(C)C)C1=O)C(C)(C)C(C)N2C` (stereo not drawn) [Example A11-22, reference compound], the “Solubility to organic solvent: Cyclohexanone” value (from here on “Solubility … Cyclohexanone”) [1] was under 1.0% mass %, the “Solubility to organic solvent: MIBK” value [1] was under 1.0% mass % and the “Solubility to organic solvent: Toluene” value [1] was 1.00% mass %. For the same compound, the “430 nm to 600 nm Average transmittance” value [2, 3] was 95.3%, the “Is value (nd(B)×(λa-λc))” value [2, 3] was 126.4 and the λa [2, 3] was 691 nm. For the same compound, the “λa − λc” value [2, 3] was 79 nm, the λb [2, 3] was 721 nm and the “λb − λa” value [2, 3] was 30 nm. The λc [2, 3] was 612 nm and the λmax [2, 3] was 707 nm.

For `CCCCC(CC)C(=O)Nc1cc2c(cc1C1=C([O-])C(=c3cc4c(cc3NC(=O)C(CC)CCCC)=[N+](CCC)C(C)C4(C)C)C1=O)C(C)(C)C(C)N2CCC` (stereo not drawn) [Example A11-6], the “Solubility … Cyclohexanone” value [1] was 10%< mass %, the “Solubility to organic solvent: MIBK” value [1] was 10%< mass % and the “Solubility to organic solvent: Toluene” value [1] was 10%< mass %.

For `CCCC(C)C(=O)Nc1cc2c(cc1C1=C([O-])C(=c3cc4c(cc3NC(=O)C(C)CCC)=[N+](C)C(C)C4(C)C)C1=O)C(C)(C)C(C)N2C` (stereo not drawn) [Example A11-10], the “Solubility … Cyclohexanone” value [1] was 10%< mass %, the “Solubility to organic solvent: MIBK” value [1] was 1.00% mass % and the “Solubility to organic solvent: Toluene” value [1] was 3.00% mass %.

With `CCCC(C)(C)C(=O)Nc1cc2c(cc1C1=C([O-])C(=c3cc4c(cc3NC(=O)C(C)(C)CCC)=[N+](C)C(C)C4(C)C)C1=O)C(C)(C)C(C)N2C` (stereo not drawn) [Example A11-14] the “430 nm to 600 nm Average transmittance” value [2, 4] was 94.7%, the “Is value (nd(B)×(λa-λc))” value [2, 4] was 110.9 and the λa [2, 4] was 684 nm. For the same compound, the “λa − λc” value [2, 4] was 71 nm, the λb [2, 4] was 714 nm and the “λb − λa” value [2, 4] was 30 nm. The λc [2, 4] was 613 nm, the λmax [2, 4] was 700 nm and the “430 nm to 600 nm Average transmittance” value [2, 5] was 95.5%. For the same compound, the “Is value (nd(B)×(λa-λc))” value [2, 5] was 112.6, the λa [2, 5] was 689 nm and the “λa − λc” value [2, 5] was 69 nm. The λb [2, 5] was 719 nm, the “λb − λa” value [2, 5] was 30 nm and the λc [2, 5] was 620 nm. For the same compound, the λmax [2, 5] was 705 nm, the “430 nm to 600 nm Average transmittance” value [2, 6] was 97.1% and the “Is value (nd(B)×(λa-λc))” value [2, 6] was 112.8. For the same compound, the λa [2, 6] was 689 nm, the “λa − λc” value [2, 6] was 69 nm and the λb [2, 6] was 719 nm. The “λb − λa” value [2, 6] was 30 nm, the λc [2, 6] was 620 nm and the λmax [2, 6] was 700 nm. The “430 nm to 600 nm Average transmittance” value [2, 7] was 95.6%, the “Is value (nd(B)×(λa-λc))” value [2, 7] was 111.2 and the λa [2, 7] was 689 nm. For the same compound, the “λa − λc” value [2, 7] was 68 nm, the λb [2, 7] was 719 nm and the “λb − λa” value [2, 7] was 30 nm. The λc [2, 7] was 621 nm and the λmax [2, 7] was 705 nm.

With `CC(C)C(=O)Nc1cc2c(cc1C1=C([O-])C(=c3cc4c(cc3NC(=O)C(C)C)=[N+](C)C(C)C4(C)C)C1=O)C(C)(C)C(C)N2C` (stereo not drawn) [Example A11-26, reference compound] the “Solubility … Cyclohexanone” value [1] was under 1.0% mass %, the “Solubility to organic solvent: MIBK” value [1] was under 1.0% mass % and the “Solubility to organic solvent: Toluene” value [1] was under 1.0% mass %.

For `CCCCCCC(=O)Nc1cc2c(cc1C1=C([O-])C(=c3cc4c(cc3NC(=O)CCCCCC)=[N+](C)C(C)C4(C)C)C1=O)C(C)(C)C(C)N2C` (stereo not drawn) [Example A11-23, reference compound], the “Solubility … Cyclohexanone” value [1] was 2.50% mass %, the “Solubility to organic solvent: MIBK” value [1] was under 1.0% mass % and the “Solubility to organic solvent: Toluene” value [1] was 2.50% mass %.

In the case of `CCCCC(CC)C(=O)Nc1cc2c(cc1C1=C([O-])C(=c3cc4c(cc3NC(=O)C(CC)CCCC)=[N+](CC)C(C)C4(C)C)C1=O)C(C)(C)C(C)N2CC` (stereo not drawn) [Example A11-5], the “Solubility … Cyclohexanone” value [1] is reported as 10%< mass %, the “Solubility to organic solvent: MIBK” value [1] is reported as 10%< mass % and the “Solubility to organic solvent: Toluene” value [1] is reported as 10%< mass %.

In the case of `CCCCCCCCCC(CCCCCCC)C(=O)Nc1cc2c(cc1C1=C([O-])C(=c3cc4c(cc3NC(=O)C(CCCCCCC)CCCCCCCCC)=[N+](C)C(C)C4(C)C)C1=O)C(C)(C)C(C)N2C` (stereo not drawn) [Example A11-3], the “Solubility … Cyclohexanone” value [1] is reported as 10%< mass %, the “Solubility to organic solvent: MIBK” value [1] is reported as 10%< mass % and the “Solubility to organic solvent: Toluene” value [1] is reported as 10%< mass %.

In the case of `CCN1c2cc(NC(=O)C(C)(C)CCCOc3cc(C)ccc3C)c(C3=C([O-])C(=c4cc5c(cc4NC(=O)C(C)(C)CCCOc4cc(C)ccc4C)=[N+](CC)C(C)C5(C)C)C3=O)cc2C(C)(C)C1C` (stereo not drawn) [Example A11-8], the “Solubility … Cyclohexanone” value [1] is reported as 10%< mass %, the “Solubility to organic solvent: MIBK” value [1] is reported as 10%< mass % and the “Solubility to organic solvent: Toluene” value [1] is reported as 10%< mass %.

For `CCCC(=O)Nc1cc2c(cc1C1=C([O-])C(=c3cc4c(cc3NC(=O)CCC)=[N+](C)C(C)C4(C)C)C1=O)C(C)(C)C(C)N2C` (stereo not drawn) [Example A11-21, reference compound], the “Solubility … Cyclohexanone” value [1] was under 1.0% mass %, the “Solubility to organic solvent: MIBK” value [1] was under 1.0% mass % and the “Solubility to organic solvent: Toluene” value [1] was under 1.0% mass %.

In the case of `Cc1ccc(C)c(OCCCC(C)(C)C(=O)Nc2cc3c(cc2C2=C([O-])C(=c4cc5c(cc4NC(=O)C(C)(C)CCCOc4cc(C)ccc4C)=[N+](C)C(C)C5(C)C)C2=O)C(C)(C)C(C)N3C)c1` (stereo not drawn) [Example A11-13], the “430 nm to 600 nm Average transmittance” value [2, 4] is reported as 94.8%, the “Is value (nd(B)×(λa-λc))” value [2, 4] is reported as 110.9 and the λa [2, 4] is reported as 683 nm. The “λa − λc” value [2, 4] was 71 nm, the λb [2, 4] was 713 nm and the “λb − λa” value [2, 4] was 30 nm. The λc [2, 4] was 612 nm, the λmax [2, 4] was 700 nm and the “430 nm to 600 nm Average transmittance” value [2, 5] was 96.1%. For the same compound, the “Is value (nd(B)×(λa-λc))” value [2, 5] was 111.0, the λa [2, 5] was 689 nm and the “λa − λc” value [2, 5] was 68 nm. The λb [2, 5] was 719 nm, the “λb − λa” value [2, 5] was 30 nm and the λc [2, 5] was 621 nm. The λmax [2, 5] was 705 nm, the “430 nm to 600 nm Average transmittance” value [2, 6] was 97.3% and the “Is value (nd(B)×(λa-λc))” value [2, 6] was 112.8. For the same compound, the λa [2, 6] was 689 nm, the “λa − λc” value [2, 6] was 69 nm and the λb [2, 6] was 719 nm. The “λb − λa” value [2, 6] was 30 nm, the λc [2, 6] was 620 nm and the λmax [2, 6] was 700 nm. For the same compound, the “430 nm to 600 nm Average transmittance” value [2, 7] was 95.1%, the “Is value (nd(B)×(λa-λc))” value [2, 7] was 112.8 and the λa [2, 7] was 689 nm. For the same compound, the “λa − λc” value [2, 7] was 69 nm, the λb [2, 7] was 719 nm and the “λb − λa” value [2, 7] was 30 nm. The λc [2, 7] was 620 nm and the λmax [2, 7] was 705 nm.
